Assay results from US5854004A, “Process for screening substances capable of modulating a receptor-dependent cellular signal transmission path” (Boehringer Ingleheim GmbH, priority 1991, dated 1998).
Where no end group is shown, it is not given here.

Key:
[1] = molecular target: T1, human neurokinin 2-receptor (Homo sapiens, UniProt P21452); assay: Luciferase activity in NK2-test cell line A20/NK2-122
T1 sequence (P21452 1-398): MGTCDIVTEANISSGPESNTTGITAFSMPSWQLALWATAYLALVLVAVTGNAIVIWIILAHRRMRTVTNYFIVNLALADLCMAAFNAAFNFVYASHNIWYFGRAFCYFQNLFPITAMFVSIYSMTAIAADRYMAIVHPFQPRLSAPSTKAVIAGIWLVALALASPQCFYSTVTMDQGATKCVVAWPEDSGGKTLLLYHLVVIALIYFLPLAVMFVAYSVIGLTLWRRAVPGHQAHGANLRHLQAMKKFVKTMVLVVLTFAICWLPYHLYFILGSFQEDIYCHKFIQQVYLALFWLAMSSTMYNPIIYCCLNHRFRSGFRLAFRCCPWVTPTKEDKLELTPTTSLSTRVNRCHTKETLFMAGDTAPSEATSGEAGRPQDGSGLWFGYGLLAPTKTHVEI
Method: (§1) 15-20 days after transfection, individual cell clones were transferred into 96-well microtitre plates and further cultivated. […] Approximately 40,000 cells in each clone were sown, in a procedure repeated 6 times, in 200 μl per well of a light-impervious 96-well microtitre plate coated with tissue culture (Microlite™, Dynatech Laboratories) and incubated overnight at 37° C. Three mixtures were treated with 10 ng TPA/ml and incubated for a further 8 hours. Then the medium was removed and the cells were washed twice with PBS.
This Example illustrates the preparation of a test cell line for the human neurokinin 2 (NK2)-receptor which is coupled to the phospholipase C-signal transduction pathway. This test cell line makes it possible, by measurement of the luciferase activity, to identify substances which modulate the intracellular IP3 /DAG concentrations, depending on the receptor.
(§2) The pretest cell line A20 was transfected, as described under a), by electroporation with the plasmid pAHyg-NK2, which had previously been linearised with BglII. From the day after transfection onwards, the cells were grown in selection medium, as used for the cell line A20 and additionally enriched with 150 μg/ml hygromycin B (Sigma). Individual clones were tested for inducibility of the luciferase activity as described under a).

cell line CHO C6-13 = assay: Luciferase expression in CRE-pretest cell line CHO C6-13; conditions: for change in luciferase expression/activity: 3 hours treatment, FIG. 33
Method: The transfection by electroporation was carried out as follows: after removal of the medium the cells were detached from the surface by means of a trypsin/PBS solution, suspended in medium and pelleted for 5 minutes at 250×g. The cells were washed in HBS (10 mM HEPES pH 7.4, 150 mM NaCl) and pelleted by centrifuging. The cells were suspended in HBS in a density of 1×10^7 cells/ml. 0.8 ml of cell suspension were mixed with 20 μg of DNA of the plasmid pADneo2-C6-BGL linearised with ScaI and transferred into an electroporation dish. […] After the electroporation the cells were diluted in the medium mentioned above, 20,000 cells per 90 mm culture dish was sown and incubated overnight at 37° C.
Two batches of each were treated with 20 μM forskolin and incubated for a further 5 hours at 37° C. Then the medium was removed from all the cells and the cells were washed with PBS.
Cells of the cell line CHO C6-13 were treated for 3 hours with various substances which alter the intracellular concentration of cAMP or IP3 /DAG or simulate a change in concentration, and also treated with receptor-specific agonists which influence the above-mentioned signal transduction mechanisms.

luciferase = luciferase (Photinus pyralis, UniProt P08659); assay: Effect of reagent component concentration on luciferase measuring signal; type: biochemical
Method: The effect of varying the concentration of ATP, luciferin, MgSO4. 7H2 O, dithiothreitol (DDT), β-mercaptoethanol (BME), sodium tripolyphosphate (NaTPP), Triton X-100 and the pH on the luciferase measuring signal obtained was determined (Table 2). The measurements obtained 3 minutes after the addition of the reagent were used for comparison (given as percentage of the maximum measuring signal obtained).

[2] = molecular target: T2, human dopamine D1-receptor (Homo sapiens, UniProt P21728); assay: Induction of pADneo2-C6-BGL (CRE) via dopamine-D1-receptor in co-transfected COS-7 cells; conditions: 1 μM apomorphine and 1 μM SCH23390
[3] = molecular target: T2, human dopamine D1-receptor; assay: Luciferase activity in dopamine D1-receptor test cell line CHO 13D1-38
Method: The cell line CHO C6-13 characterised above was transfected, as described under a), by electroporation with plasmid pAD-CMV2:D1, which had previously been linearised with FspI.
For the use of test cell lines in an automatic screening system with a high throughput rate it is advantageous to use microtitre plates having 96 wells per plate. For this purpose, 60,000 cells (CHO C6-13 or CHO 13D1-38) were sown in 200 μl medium per well in light-impermeable microtitre plates coated with tissue culture
(Microlite™, Dynatech Labroatories) and incubated overnight at 37° C. Then various chemicals were added to the cells and they were incubated for a certain length of time (usually 3 hours). After removal of the medium the cells were washed with PBS, lysed in 1% Triton X-100 and the luciferase activity was measured in a 96-well luminometer (ML-1000, Dynatech) (FIG. 36).
In order to simulate a screening process in which the test substances are preferably supplied in a uniform solvent, a final concentration of 1% DMSO was used in this experiment.

cell line A20 = assay: Luciferase induction in stable TRE-pretest cell line A20 (A549, pBHluc1.3); conditions: A20, no receptor DNA
Method: In order to produce a stable (pre-)test cell line for substances which influence the expression of the luciferase gene by direct or receptor-mediated modulation of the IP3 /DAC-signal transduction pathway, A549 cells were simultaneously transfected with the plasmid pBHluc1.3 and the selection plasmid pRSVneo by electroporation as follows: after removal of the medium the cells were detached from the surface by means of a trypsin/PBS solution, suspended in medium and sedimented for 5 minutes at 250×g. […] 0.8 ml of cell suspension were combined with 20 μg of pBHluc1.3 and 2 μg of pRSVneo. Both plasmids had previously been linearised with BamHI.
as §1, §2

human 5HT2-receptor = human 5HT2-receptor (Homo sapiens, UniProt P28223); assay: cell-based
Source text: The human 5HT2-receptor is another example of a receptor coupled to the phospholipase C-signal transduction pathway. The TRE-cell line A20 is therefore also suitable in this case as a starting cell line for establishing a test cell line in order to discover substances which modulate the activity of the 5HT2-receptor.
The plasmid pAHyg-5HT2, linearised with BglII, was for this purpose transfected into the cell line A20 by electroporation as described under a) and grown in selection medium.
For this purpose the cells were simultaneously treated with a constant amount of serotonin (1 μg) and increasing amounts of antagonist.

Chain of luciferase (P08659 whole entry): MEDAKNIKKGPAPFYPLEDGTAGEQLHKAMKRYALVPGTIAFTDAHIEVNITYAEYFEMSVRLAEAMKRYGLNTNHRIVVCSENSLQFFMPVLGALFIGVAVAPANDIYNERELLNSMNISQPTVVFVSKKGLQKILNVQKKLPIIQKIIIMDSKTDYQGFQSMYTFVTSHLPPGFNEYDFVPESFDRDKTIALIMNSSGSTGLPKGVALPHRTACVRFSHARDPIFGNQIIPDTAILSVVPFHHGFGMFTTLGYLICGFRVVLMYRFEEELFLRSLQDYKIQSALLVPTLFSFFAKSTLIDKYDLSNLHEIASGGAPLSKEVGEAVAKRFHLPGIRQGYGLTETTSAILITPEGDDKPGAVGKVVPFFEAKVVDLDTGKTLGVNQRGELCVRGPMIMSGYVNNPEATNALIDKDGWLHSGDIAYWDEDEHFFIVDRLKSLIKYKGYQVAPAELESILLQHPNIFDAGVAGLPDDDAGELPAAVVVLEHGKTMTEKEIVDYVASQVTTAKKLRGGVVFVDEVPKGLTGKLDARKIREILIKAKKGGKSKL
T2 sequence (P21728 whole entry): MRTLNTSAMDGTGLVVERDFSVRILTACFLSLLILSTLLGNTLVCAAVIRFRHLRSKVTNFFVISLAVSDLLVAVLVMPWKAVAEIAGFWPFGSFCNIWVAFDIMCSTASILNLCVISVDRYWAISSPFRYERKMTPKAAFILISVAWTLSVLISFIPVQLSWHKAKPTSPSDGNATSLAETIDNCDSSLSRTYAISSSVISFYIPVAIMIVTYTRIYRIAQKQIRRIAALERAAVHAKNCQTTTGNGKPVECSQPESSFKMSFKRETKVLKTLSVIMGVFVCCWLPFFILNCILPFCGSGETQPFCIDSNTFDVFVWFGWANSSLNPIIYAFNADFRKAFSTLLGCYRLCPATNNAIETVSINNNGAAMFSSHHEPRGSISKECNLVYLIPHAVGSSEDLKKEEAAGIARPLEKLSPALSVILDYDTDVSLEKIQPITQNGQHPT
Chain of human 5HT2-receptor (P28223 whole entry): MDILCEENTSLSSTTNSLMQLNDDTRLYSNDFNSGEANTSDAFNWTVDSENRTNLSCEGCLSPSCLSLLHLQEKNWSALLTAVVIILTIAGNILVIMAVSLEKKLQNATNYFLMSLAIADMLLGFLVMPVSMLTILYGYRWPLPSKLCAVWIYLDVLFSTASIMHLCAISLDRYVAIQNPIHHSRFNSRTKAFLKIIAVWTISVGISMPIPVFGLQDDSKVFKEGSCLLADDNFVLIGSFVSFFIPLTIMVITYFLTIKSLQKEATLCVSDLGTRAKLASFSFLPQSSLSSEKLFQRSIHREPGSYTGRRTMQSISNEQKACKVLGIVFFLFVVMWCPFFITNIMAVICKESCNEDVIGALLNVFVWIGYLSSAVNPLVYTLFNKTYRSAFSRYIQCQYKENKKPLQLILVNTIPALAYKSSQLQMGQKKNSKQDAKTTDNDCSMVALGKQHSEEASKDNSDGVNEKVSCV

COc1ccccc1CN[C@H]1C2CCN(CC2)[C@H]1C(c1ccccc1)c1ccccc1 (relative stereo) [BIBO 2020, ±cis-3-(2-methoxybenzylamino)-2-benzhydrylquinulidine]
inhibition of the agonistic effect of neurokinin A [1]: effective at higher concentrations (P7492>BIBO 2020>H-9290)

CNc1ccc2oc(C[C@H]3O[C@@]4(CC[C@H]3C)O[C@H]([C@H](C)C(=O)c3ccc[nH]3)[C@H](C)C[C@H]4C)nc2c1C(=O)O [A23187]
change in luciferase expression/activity (cell line CHO C6-13): did not bring about any significant change in the luciferase activity

Nc1ncnc2c1ncn2[C@@H]1O[C@H](COP(=O)(O)OP(=O)(O)OP(=O)(O)O)[C@@H](O)[C@H]1O [ATP, adenosine triphosphate]
% max. signal (luciferase) (luciferase; ATP 0.06 g/l): 61%
% max. signal (luciferase) (luciferase; ATP 0.13 g/l): 95%
% max. signal (luciferase) (luciferase; ATP 0.29 g/l): 100%
% max. signal (luciferase) (luciferase; ATP 0.65 g/l): 98%
% max. signal (luciferase) (luciferase; ATP 1.47 g/l): 83%
% max. signal (luciferase) (luciferase; ATP 3.30 g/l): 78%

OCCS [BME, β-mercaptoethanol]
max. signal (luciferase) (luciferase; BME 0.59 ml/l): 80%
max. signal (luciferase) (luciferase; BME 0.88 ml/l): 82%
max. signal (luciferase) (luciferase; BME 1.32 ml/l): 68%
max. signal (luciferase) (luciferase; BME 1.98 ml/l): 84%
max. signal (luciferase) (luciferase; BME 2.96 ml/l): 86%
max. signal (luciferase) (luciferase; BME 4.44 ml/l): 100%
max. signal (luciferase) (luciferase; BME 6.67 ml/l): 94%
max. signal (luciferase) (luciferase; BME 10.0 ml/l): 93%

CC(C)Cn1c(=O)n(C)c(=O)c2[nH]cnc21 [IBMX, isobutylmethylxanthine]
change in luciferase expression/activity (cell line CHO C6-13): increased
shift in the forskolin dosage-activity curve to lower forskolin concentrations (cell line CHO C6-13; with IBMX): one order of magnitude
influence on maximum induction of the luciferase reporter gene (cell line CHO C6-13; with forskolin): not significantly influenced

O=C(O)[C@H]1CSC(c2nc3ccc(O)cc3s2)=N1 [Lucifenn]
% max. signal (luciferase) (luciferase; luciferin 1.32 mg/l): 42%
% max. signal (luciferase) (luciferase; luciferin 1.98 mg/l): 58%
% max. signal (luciferase) (luciferase; luciferin 2.96 mg/l): 65%
% max. signal (luciferase) (luciferase; luciferin 4.44 mg/l): 75%
% max. signal (luciferase) (luciferase; luciferin 6.67 mg/l): 88%
% max. signal (luciferase) (luciferase; luciferin 10.0 mg/l): 95%
% max. signal (luciferase) (luciferase; luciferin 15.0 mg/l): 100%

O.O.O.O.O.O.O.O=S(=O)([O-])[O-].[Mg+2] [MgSO4, magnesium sulphate-heptahydrate]
% max. signal (luciferase) (luciferase; MgSO4 0.35 g/l): 20%
% max. signal (luciferase) (luciferase; MgSO4 0.53 g/l): 48%
% max. signal (luciferase) (luciferase; MgSO4 0.79 g/l): 64%
% max. signal (luciferase) (luciferase; MgSO4 1.19 g/l): 77%
% max. signal (luciferase) (luciferase; MgSO4 1.78 g/l): 77%
% max. signal (luciferase) (luciferase; MgSO4 2.67 g/l): 100%
% max. signal (luciferase) (luciferase; MgSO4 4.00 g/l): 100%

O=P(O)(O)OP(=O)(O)OP(=O)(O)O [NaTPP, sodium tripolyphosphate]
% max. signal (luciferase) (luciferase; NaTPP 5.01 mg/l): 54%
% max. signal (luciferase) (luciferase; NaTPP 15.8 mg/l): 64%
% max. signal (luciferase) (luciferase; NaTPP 50.0 mg/l): 82%
% max. signal (luciferase) (luciferase; NaTPP 158 mg/l): 100%
% max. signal (luciferase) (luciferase; NaTPP 500 mg/l): 75%

CN1CCc2cc(Cl)c(O)cc2[C@@H](c2ccccc2)C1 [SCH23390]
prevention of agonist-mediated induction (CRE) [2]: prevented

CC(C)C[C@H]1C(=O)N2CCC[C@H]2[C@]2(O)O[C@](NC(=O)[C@@H]3C=C4c5cccc6[nH]c(Br)c(c56)C[C@H]4N(C)C3)(C(C)C)C(=O)N12 [bromocryptin]
change in luciferase expression/activity (cell line CHO C6-13): did not bring about any significant change in the luciferase activity
luciferase induction at the highest concentration (attributed to cell toxicity or low pH) ([3]; 100 μM bromocryptin): reversal of luciferase induction
activity on luciferase induction ([3]; FIG. 38B): dosage-dependent activity

C[N+](C)(C)CCOC(N)=O [carbachol]
change in luciferase expression/activity (cell line CHO C6-13): did not bring about any significant change in the luciferase activity

CCCC(=O)Nc1ncnc2c1ncn2[C@@H]1O[C@@H]2COP(=O)(O)O[C@H]2[C@H]1OC(=O)CCC [dibutyryl-cAMP]
change in luciferase expression/activity (cell line CHO C6-13): increased

NCCc1c[nH]c2ccc(O)cc12 [serotonin]
induction of luciferase activity by receptor agonists in pretest cell line A20 (cell line A20): could not be induced
selectivity of dosage-activity curves (human 5HT2-receptor): selective for serotonin
induction time up to which luciferase activity increases continuously (human 5HT2-receptor; serotonin 1 μM): 6 h
change in luciferase expression/activity (cell line CHO C6-13): did not bring about any significant change in the luciferase activity

O=C(CCCN1CCC2(CC1)C(=O)NCN2c1ccccc1)c1ccc(F)cc1 [spiperone]
inhibition of the agonistic activity of serotonin (human 5HT2-receptor; constant serotonin (1 μg), increasing antagonist, FIG. 32B): able to be inhibited

neurokinin A: neurokinin (Sigma), agonist at neurokinin 2-receptor (HKTDSFVGLM-NH2; ends and bridges not checked; UniProt P20366 98-107, looked up)
induction of luciferase activity by receptor agonists in pretest cell line A20 (cell line A20): could not be induced by any of the three tachykinins

neuromedin K (NMK): neurokinin (Sigma), tachykinin
induction of luciferase activity by receptor agonists in pretest cell line A20 (cell line A20): could not be induced by any of the three tachykinins
relative effectiveness of the neurokinins ([1]; dosage activity curves, FIG. 29A): NKA>neuromedin K (NMK)>substance P (SP)

substance P (SP): neurokinin (Sigma), tachykinin (RPKPQQFFGLM-NH2; ends and bridges not checked; UniProt P20366 58-68, looked up)
induction of luciferase activity by receptor agonists in pretest cell line A20 (cell line A20): could not be induced by any of the three tachykinins
